How the values were obtained:
[1] = Hayes et al., J. Clin. Pharmacol. 2003; cited from earlier work
[2] = test system: rats with middle cerebral artery occlusion (MCAO); experiment: Hindlimb placing test, MCAO rats, dose escalation study (Example 17); assay type: in vivo, Sprague Dawley rat
From the text: Limb Placing: Evaluated at Day −1 (pre-operation), Day 1, Day 7, Day 14, Day 21, Day 28, Day 30, Day 32, Day 42, Day 44, Day 46, Day 56, Day 58, Day 60. The limb placing tests were divided into forelimb and hindlimb tests. For the forelimb-placing test, the examiner held the rat close to a tabletop and scored the rat's ability to place the forelimb on the tabletop in response to whisker, visual, tactile, or proprioceptive stimulation. Similarly, for the hindlimb placing test, the examiner assessed the rat's ability to place the hindlimb on the tabletop in response to tactile and proprioceptive stimulation. Together, these tests reflect function and recovery in the sensorimotor systems (De Ryck et al., Brain Res 1992; 573:44-60). Separate sub-scores were obtained for each mode of sensory input and added to give total scores (for the forelimb placing test: 0=normal, 12=maximally impaired; for the hindlimb placing test: 0=normal; 6=maximally impaired). Scores were given in half-point increments (see below). Typically, there is a slow and steady recovery of limb placing behavior during the first month after stroke.
Hindlimb placing test (0-6): • tactile placing (dorsal (0-2), lateral (0-2)) • proprioceptive placing (0-2).
For each subtest, animals are scored as followed: • 0.0=immediate response • 0.5=response within 2 seconds • 1.0=response of 2-3 seconds • 1.5=response of >3 seconds • 2.0=no response
4-AP was evaluated for its ability to promote functional sensorimotor improvement following ischemic stroke in rats with stable motor deficits at times remote from their ischemic events. The animal model of ischemic stroke, i.e., the MCAO model, used in this example is the same as the animal model described in Example 2.
In the MCAO model recovery begins to plateau by 4 weeks after MCAO, at which time there are still measurable deficits in sensorimotor function. However, 4 weeks after MCAO there may still be slow continued endogenous recovery.
4-aminopyridine was dissolved in water for injection (WFI, Cellgro) and sterile filtered. Solutions of 0.25 mg/mL, 0.5 mg/mL and 1.0 mg/mL of 4-aminopyridine were delivered by gastric gavage at 2 mL/kg for final doses of 0.5 mg/kg, 1 mg/kg or 2.0 mg/kg respectively. Vehicle control treatment was WFI delivered at 2 mL/kg by gastric gavage. Starting on Day 56 after MCAO, animals received gastric gavage of solutions (2 mL/kg) approximately 12 hours apart. The vehicle control group was treated with water for all doses on Days 56-65. For the treated group, six doses of 4-aminopyridine at 0.5 mg/kg were delivered over Days 56-59, followed by six doses at 1.0 mg/kg over Days 59-62 and six doses at 2.0 mg/kg over Days 62-65. Animals in all groups were not treated during Days 66-70. p.o.=par oral. […]

[3] = test system: rats with middle cerebral artery occlusion (MCAO); experiment: Body swing test, MCAO rats, dose escalation study (Example 17); assay type: in vivo, Sprague Dawley rat; conditions: groups diverged prior to treatment initiation (FIG. 13)
Protocol: Body Swing: Evaluated at Day −1 (pre-operation), Day 1, Day 7, Day 14, Day 21, Day 28, Day 30, Day 32, Day 42, Day 44, Day 46, Day 56, Day 58, Day 60. Body swing was evaluated by counting head movements to one side or the other when suspended by tail. For this test, the rat was held approximately one (1) inch from the base of its tail. It was then elevated to an inch above a surface of a table. The rat was held in the vertical axis, defined as no more than 10° to either the left or the right side. A swing was recorded whenever the rat moved its head out of the vertical axis to either side. Before attempting another swing, the rat had to return to the vertical position for the next swing to be counted. Thirty (30) total swings were counted. […] Body swing scores were expressed as a percentage of rightward over total swings. […]
4-AP was evaluated for its ability to promote functional sensorimotor improvement following ischemic stroke in rats with stable motor deficits at times remote from their ischemic events. […]
Body Swing: Evaluated at Day −1 (pre-operation), Day 1, Day 7, Day 14, Day 21, Day 28, Day 35, Day 42, Day 49, Day 56, Day 59, Day 62, Day 65, Day 70. […]
Statistical Methods: Changes from pre-treatment baseline values (Day 56) were calculated for each behavioral score at each time point assessed after dosing. […]

[4] = human subjects; Donovan et al., Spinal Cord 2000; cited from earlier work

Nc1ccncc1 [4-aminopyridine]
half life [1]: 1 to 1.5 h
Hind limb placing score compared to vehicle ([2]; 0.5 mg/kg b.i.d. p.o., Day 59): improved with the low dose but did not reach significance
Hind limb placing compared to vehicle ([2]; 1 mg/kg b.i.d. p.o., Day 62, p<0.05): measureable improvement
Hind limb function compared to vehicle ([2]; 2 mg/kg b.i.d. p.o., Day 65, p<0.001): significant improvements
Hind limb score after treatment withdrawn for 5 days ([2]; Day 70, p<0.05): remained greater than the vehicle treated group
Body swing performance [3]: no conclusions can be drawn
delay in the peak concentration in cerebrospinal fluid compared to that in the blood [4]: approximately an hour
